The source of these data is patent US5955632A, “Seco-d steroids active on the cardiovascular system, processes for their preparation and pharmaceutical compositions containing them” (Sigma-Tau Industrie Farmaceutiche Riunite S.p.A., priority 1996, dated 1999).

Assay [1] deals with spontaneous hypertensive rats (MHS). The assay can be described thus: effect of 5 week-treatment in spontaneous hypertensive rats (MHS) on the development of hypertension (tail cuff SBP and HR). Format: in vivo, rat. The following applies: 1 mg/Kg/os daily in Methocel 0.5% w/v, 5 weeks; for SBP (systolic blood pressure): controls (Methocel) 172 +/- 3.5; for HR (heart rate): controls (Methocel) 380 +/- 9.0. The method, then: To test the antihypertensive activity the following test was used:
systolic blood pressure (SBP) and heart rate (HR) were measured, by the tail cuff method, in young prehypertensive male rats (MHS or SHR) strains before the development of hypertension (4 weeks of age) for recording the basal values of SBP. Groups of 7 rats were formed and subdivided in control and treated groups. The compound, suspended in Methocel 0.5% (w/v), was orally given daily for at least 5 weeks to the treated groups. The control group received only Methocel. SBP and HR were measured weekly 6 and 24 hrs after treatment. After 5 weeks of treatment, when hypertension was fully developed in the control group (9 weeks of age), washout was started for at least one week, to verify whether the treatment mantained blood pressure low or reestablished the basal values.
(Takeda K. et al., Japan J. Pharmacol., 1979, 29,171; Takeda K. et al. Japan J. Pharmacol., 1982, 32, 283; Richer C. et al. Eur. J. Pharmacol, 1978, 47,393).

The target in assay [2] is T1, Na^+,K^+ -ATPase (Canis lupus familiaris, UniProt P50997).
T1 construct: from tissue; the cited Jorgensen 1974 method uses outer medulla of mammalian kidney (own knowledge)
Put plainly: displacement of the specific ^3H-ouabain binding from the purified Na^+,K^+-ATPase receptor. From the text: (§1) To test the affinity for the receptor site of the Na^+,K^+ -ATPase and the agonist or antagonist activity on the enzyme, the following tests were used:
a) displacement of the specific ^3 H-ouabain binding from the Na^+,K^+ -ATPase receptor purified according to Jorghensen (Jorghensen P., BBA, 1974, 356, 36) and Erdmann (Erdmann E. et al., Arzneim. Forsh, 1984, 34, 1314);

Assay [3] concerns the target T1, Na^+,K^+ -ATPase. Put plainly: biochemical.
Source text: as §1
b) inhibition of the activity of the purified Na^+,K^+ -ATPase measured as % of hydrolysis of ^32 P-ATP in presence and in absence of the tested compound (Doucet A. et al., Am. J. Physiol., 1986, 251, F851).

The mark [4] stands for this setting: ^3H-ouabain displacement, purified Na^+,K^+-ATPase, read-out: Binding ^3 H-Ouab. Displacement log IC50 (converted).
Setting [5] is: purified Na^+,K^+-ATPase, ^32P-ATP hydrolysis, read-out: Inhibitory Activity log IC50 (converted).

Each structure is given as a SMILES string. Counter-ions that a name gives are not always drawn.

The term IC50 denotes the concentration that gives 50% inhibition.

On to `C[C@@H](C/C=N/OCCN)[C@@]1(C)CC[C@H]2[C@@H](CC[C@@H]3C[C@@H](O)CC[C@@]32C)C1=O` [Comp. I-ae, E-17β-Methyl-15-[(2-aminoethoxy)imino]-5β-14,15-seco-3β-hydroxy-androstan-14-one oxalate], for which, in assay [1], the “SBP (systolic blood pressure)” value was 149 +/- 3.7 mm Hg and the “HR (heart rate)” value is recorded as 370 +/- 11.2 beats/min.

`C[C@@H](C/C=N/OCCN(C)C)[C@@]1(C)CC[C@H]2[C@@H](CC[C@@H]3C[C@@H](O)CC[C@@]32C)C1=O` [Comp. I-ag, E-17β-Methyl-15-[(2-dimethylaminoethoxy)imino]-5β-14,15-seco-3β-hydroxy-androstan-14-one oxalate]: in assay [1], the “SBP (systolic blood pressure)” value was 154 +/- 4.8 mm Hg and the “HR (heart rate)” value is recorded as 390 +/- 5.9 beats/min.

On to `CC[C@H](/C=N/OCCN(C)C)[C@@]1(C)CC[C@H]2[C@@H](CC[C@@H]3C[C@@H](O)CC[C@@]32C)C1=O` [Comp. I-ai, E-17β-2-[(2-Dimethylaminoethoxy)iminomethyl]-5β-14,15-seco-3β-hydroxy-androstan-14-one oxalate], for which the IC50 is 3980 nM on Na^+,K^+ -ATPase [2] (setting [4]) and 100000 nM at Na^+,K^+ -ATPase [3] (setting [5]).

As for `CC[C@@H](/C=N/OCCN(C)C)[C@@]1(C)CC[C@H]2[C@@H](CC[C@@H]3C[C@@H](O)CC[C@@]32C)C1=O` [Comp. I-ak, E-17β-2-[(2-Dimethylaminoethoxy)iminomethyl]-5β-14,15-seco-3β-hydroxy-androstan-14-one oxalate], the IC50 on Na^+,K^+ -ATPase [2] (setting [4]) is 501 nM. Moreover, the IC50 on Na^+,K^+ -ATPase [3] (setting [5]) was 7940 nM. Besides, in assay [1], the “SBP (systolic blood pressure)” value is on record as 153 +/- 6.3 mm Hg and the “HR (heart rate)” value is given as 380 +/- 10.0 beats/min.

With `CC[C@@H](C/C=N/OCCN)[C@@]1(C)CC[C@H]2[C@@H](CC[C@@H]3C[C@@H](O)CC[C@@]32C)C1=O` [Comp. I-ao, E-17α-2-[(2-Aminoethoxy)iminomethyl]-5β-14,15-seco-3β-hydroxy-androstan-14-one oxalate], the IC50 is 39.8 nM at Na^+,K^+ -ATPase [2] and 200 nM against Na^+,K^+ -ATPase [3].

Take `CC[C@H](C/C=N/OCCN(C)C)[C@@]1(C)CC[C@H]2[C@@H](CC[C@@H]3C[C@@H](O)CC[C@@]32C)C1=O` [Comp. I-aq, E-17β-2-[(2-Dimethylaminoethoxy)iminomethyl]-5β-14,15-seco-3β-hydroxy-androstan-14-one oxalate]: the IC50 at Na^+,K^+ -ATPase [2] was 794 nM; against Na^+,K^+ -ATPase [3], 12600 nM.

Turning to `CC[C@@H](C/C=N/OCCN(C)C)[C@@]1(C)CC[C@H]2[C@@H](CC[C@@H]3C[C@@H](O)CC[C@@]32C)C1=O` [Comp. I-as, E-17α-2-[(2-Dimethylaminoethoxy)iminomethyl]-5β-14,15-seco-3β-hydroxy-androstan-14-one oxalate], the IC50 on Na^+,K^+ -ATPase [2] was 100 nM; on Na^+,K^+ -ATPase [3], 1260 nM.

In the case of `CC[C@@H](C/C=N/NC(=N)N)[C@@]1(C)CC[C@H]2[C@@H](CC[C@@H]3C[C@@H](O)CC[C@@]32C)C1=O` [Comp. I-ay, E-17α-2-(2-Guanidinoiminoethyl)-5β-14,15-seco-3β-hydroxy-androstan-14-one oxalate], the values for the IC50 on Na^+,K^+ -ATPase [2] (setting [4]) and at Na^+,K^+ -ATPase [3] (setting [5]) were 398 nM and 3160 nM, respectively.

As to `CC[C@@H](C/C=C/C=N/OCCN(C)C)[C@@]1(C)CC[C@H]2[C@@H](CC[C@@H]3C[C@@H](O)CC[C@@]32C)C1=O` [Comp. I-be, E,E-17α-4-[(2-Dimethylaminoethoxyimino)-2-butenyl]-5β-14,15-seco-3β-hydroxy-androstan-14-one oxalate], on Na^+,K^+ -ATPase [2] (setting [4]), the IC50 was 316 nM. Besides, at Na^+,K^+ -ATPase [3] (setting [5]), the 50% inhibitory concentration (IC50) is 6310 nM. For the same compound, in assay [1], the “SBP (systolic blood pressure)” value is 150 +/- 5.1 mm Hg and the “HR (heart rate)” value is 384 +/- 7.9 beats/min.

Consider `CC[C@@H](C/C=N/OCCN)[C@@]1(C)CC[C@H]2[C@@H](CC[C@H]3C[C@@H](O)CC[C@@]32C)C1=O` [Comp. I-bg, E-17α-2-[(2-Aminoethoxy)iminomethyl]-14,15-seco-3β-hydroxy-androstan-14-one oxalate], for which the figures for the IC50 at Na^+,K^+ -ATPase [2] and against Na^+,K^+ -ATPase [3] were 158 nM and 1000 nM, respectively. Further, the “SBP (systolic blood pressure)” value in assay [1] is 151 +/- 5.2 mm Hg. For the same compound, the “HR (heart rate)” value in assay [1] is listed as 388 +/- 9.0 beats/min.

In the case of `CC[C@@H](C/C=N/OCCN(C)C)[C@@]1(C)CC[C@H]2[C@@H](CC[C@H]3C[C@@H](O)CC[C@@]32C)C1=O` [Comp. I-bi, E-17α-2-[(2-Dimethylaminoethoxy)iminomethyl]-14,15-seco-3β-hydroxy-androstan-14-one oxalate], the IC50 on Na^+,K^+ -ATPase [2] is 2000 nM; on Na^+,K^+ -ATPase [3], 10000 nM.
